In US7262206B2, “Cycloalkyl—containing 5-acylindolinones, the preparation thereof and their use as medicaments” (Boehringer Ingelheim International GmbH, priority 2004, dated 2007):

Legend:
rats = assay: Tolerability after oral administration to rats (behaviour); type: in vivo; conditions: oral administration of 10 mg/kg
db/db mice = assay: Oral glucose tolerance test; type: in vivo; conditions: fasted db/db mice, 2 g/kg oral glucose 30 minutes after substance
Procedure: Oral Glucose Tolerance Test
Fasted db/db mice 7 to 9 weeks old (Janvier, France) are weighed and blood is taken from the tip of the tail. This blood is used for the first measurement of glucose on the basis of which the animals are randomised and divided into groups. The test substance to be tested may be given either orally or i.p. as a suspension in 0.5% Natrosol. 30 minutes after the administration of the substance the animals are given orally 2 g/kg glucose in a volume of 0.1 ml/100 g body weight dissolved in NaCl solution. Subsequently, the glucose values are determined from the tail blood using a glucometer (Ultra OneTouch, Lifescan) at specific time intervals [30, 60, 120 and 180 minutes after oral administration of the glucose].

In the case of `CC(=O)c1ccc2c(c1)/C(=C(/NC1CCN(C)CC1)c1ccc3c(c1)OCO3)C(=O)N2` [Example 1, 5-Acetyl-3-[(benzo[1,3]dioxol-5-yl)-(1-methyl-piperidin-4-ylamino)-methylidene]-2-indolinone], the “changes in the animals' behaviour” value (rats) is reported as “no changes were observed in the animals' behaviour” and the “activity in the oral glucose tolerance test” value (db/db mice) is reported as “significant activity”.
